Laboratory results reported in PubChem BioAssay (NCI).
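GI50 is the concentration that inhibits growth by half. TGI marks complete inhibition of growth.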

Tests used:
Test in all cases: growth of human tumour cells (NCI), 384-well format
A498 renal = test system: A498 renal
HL-60(TB) leukemia = test system: HL-60(TB) leukemia
MDA-MB-231 breast = test system: MDA-MB-231 breast
IGROV1 ovarian = test system: IGROV1 ovarian
NCI-H322M lung = test system: NCI-H322M lung
ACHN renal = test system: ACHN renal
OVCAR-4 ovarian = test system: OVCAR-4 ovarian
A549 NSCLC = test system: A549 NSCLC
TK-10 renal = test system: TK-10 renal
NCI-H522 lung = test system: NCI-H522 lung
HOP-62 NSCLC = test system: HOP-62 NSCLC
HCT-116 colon = test system: HCT-116 colon
MDA-MB-468 breast = test system: MDA-MB-468 breast
RXF 393 renal = test system: RXF 393 renal
SNB-19 CNS = test system: SNB-19 CNS
M14 melanoma = test system: M14 melanoma
OVCAR-3 ovarian = test system: OVCAR-3 ovarian
KM12 colon = test system: KM12 colon
SF-268 CNS = test system: SF-268 CNS
DU-145 prostate = test system: DU-145 prostate
SF-539 CNS = test system: SF-539 CNS
HT29 colon = test system: HT29 colon
MDA-MB-435 melanoma = test system: MDA-MB-435 melanoma
MOLT-4 leukemia = test system: MOLT-4 leukemia
T-47D breast = test system: T-47D breast
U251 glioblastoma = test system: U251 glioblastoma
BT-549 breast = test system: BT-549 breast
NCI/ADR-RES ovarian = test system: NCI/ADR-RES ovarian
LOX IMVI melanoma = test system: LOX IMVI melanoma
UACC-62 melanoma = test system: UACC-62 melanoma
NCI-H226 lung = test system: NCI-H226 lung
SNB-75 CNS = test system: SNB-75 CNS
SK-MEL-5 melanoma = test system: SK-MEL-5 melanoma
NCI-H460 NSCLC = test system: NCI-H460 NSCLC
COLO 205 colon = test system: COLO 205 colon
HS 578T breast = test system: HS 578T breast
HOP-92 NSCLC = test system: HOP-92 NSCLC
UACC-257 melanoma = test system: UACC-257 melanoma
SK-MEL-28 melanoma = test system: SK-MEL-28 melanoma
SN12C renal = test system: SN12C renal
SR leukemia = test system: SR leukemia
RPMI-8226 leukemia = test system: RPMI-8226 leukemia
EKVX NSCLC = test system: EKVX NSCLC
HCC-2998 colon = test system: HCC-2998 colon
MCF7 breast = test system: MCF7 breast
PC-3 prostate = test system: PC-3 prostate
CAKI-1 renal = test system: CAKI-1 renal
SK-OV-3 ovarian = test system: SK-OV-3 ovarian
HCT-15 colon = test system: HCT-15 colon

N#CCCNc1nonc1-c1nc2ccccc2n1CC(=O)c1ccc(N)cc1
GI50 (A498 renal): < 0.01 µM | TGI (A498 renal): 0.0365 µM | GI50 (HL-60(TB) leukemia): < 0.01 µM | TGI (HL-60(TB) leukemia): 0.016 µM | GI50 (MDA-MB-231 breast): 0.059 µM | TGI (MDA-MB-231 breast): > 100 µM | GI50 (IGROV1 ovarian): 0.0195 µM | TGI (IGROV1 ovarian): 39.3 µM | GI50 (NCI-H322M lung): 0.0531 µM | TGI (NCI-H322M lung): > 100 µM | GI50 (ACHN renal): < 0.01 µM | TGI (ACHN renal): 37.3 µM | GI50 (OVCAR-4 ovarian): < 0.01 µM | TGI (OVCAR-4 ovarian): 2.33 µM | GI50 (A549 NSCLC): 0.0227 µM | TGI (A549 NSCLC): > 100 µM | GI50 (TK-10 renal): < 0.01 µM | TGI (TK-10 renal): > 100 µM | GI50 (NCI-H522 lung): < 0.01 µM | TGI (NCI-H522 lung): < 0.01 µM | GI50 (HOP-62 NSCLC): < 0.01 µM | TGI (HOP-62 NSCLC): 0.503 µM | GI50 (HCT-116 colon): < 0.01 µM | TGI (HCT-116 colon): > 100 µM | GI50 (MDA-MB-468 breast): < 0.01 µM | TGI (MDA-MB-468 breast): < 0.01 µM | GI50 (RXF 393 renal): < 0.01 µM | TGI (RXF 393 renal): 10.3 µM | GI50 (SNB-19 CNS): < 0.01 µM | TGI (SNB-19 CNS): 0.092 µM | GI50 (M14 melanoma): < 0.01 µM | TGI (M14 melanoma): 0.021 µM | GI50 (OVCAR-3 ovarian): < 0.01 µM | TGI (OVCAR-3 ovarian): 0.014 µM | GI50 (KM12 colon): < 0.01 µM | TGI (KM12 colon): > 100 µM | GI50 (SF-268 CNS): < 0.01 µM | TGI (SF-268 CNS): 51.1 µM | GI50 (DU-145 prostate): 0.0208 µM | TGI (DU-145 prostate): 0.0474 µM | GI50 (SF-539 CNS): < 0.01 µM | TGI (SF-539 CNS): 0.0257 µM | GI50 (HT29 colon): 0.021 µM | TGI (HT29 colon): > 100 µM | GI50 (MDA-MB-435 melanoma): < 0.01 µM | TGI (MDA-MB-435 melanoma): < 0.01 µM | GI50 (MOLT-4 leukemia): 0.0192 µM | TGI (MOLT-4 leukemia): 0.0337 µM | GI50 (T-47D breast): 1.87 µM | TGI (T-47D breast): > 100 µM | GI50 (U251 glioblastoma): < 0.01 µM | TGI (U251 glioblastoma): 0.0407 µM | GI50 (BT-549 breast): < 0.01 µM | TGI (BT-549 breast): 0.035 µM | GI50 (NCI/ADR-RES ovarian): < 0.01 µM | TGI (NCI/ADR-RES ovarian): < 0.01 µM | GI50 (LOX IMVI melanoma): 0.019 µM | TGI (LOX IMVI melanoma): 0.0442 µM | GI50 (UACC-62 melanoma): < 0.01 µM | TGI (UACC-62 melanoma): > 100 µM | GI50 (NCI-H226 lung): < 0.01 µM | TGI (NCI-H226 lung): 0.0228 µM | GI50 (SNB-75 CNS): 0.012 µM | TGI (SNB-75 CNS): > 100 µM | GI50 (SK-MEL-5 melanoma): < 0.01 µM | TGI (SK-MEL-5 melanoma): 0.017 µM | GI50 (NCI-H460 NSCLC): < 0.01 µM | TGI (NCI-H460 NSCLC): 0.02 µM | GI50 (COLO 205 colon): 0.0207 µM | TGI (COLO 205 colon): 0.0566 µM | GI50 (HS 578T breast): < 0.01 µM | TGI (HS 578T breast): 0.0114 µM | GI50 (HOP-92 NSCLC): 0.0305 µM | TGI (HOP-92 NSCLC): > 100 µM | GI50 (UACC-257 melanoma): < 0.01 µM | TGI (UACC-257 melanoma): > 100 µM | GI50 (SK-MEL-28 melanoma): 0.101 µM | TGI (SK-MEL-28 melanoma): > 100 µM | GI50 (SN12C renal): 0.0122 µM | TGI (SN12C renal): 0.0882 µM | GI50 (SR leukemia): < 0.01 µM | TGI (SR leukemia): < 0.01 µM | GI50 (RPMI-8226 leukemia): < 0.01 µM | TGI (RPMI-8226 leukemia): 0.0222 µM | GI50 (EKVX NSCLC): < 0.01 µM | TGI (EKVX NSCLC): > 100 µM | GI50 (HCC-2998 colon): 0.015 µM | TGI (HCC-2998 colon): 0.0475 µM | GI50 (MCF7 breast): < 0.01 µM | TGI (MCF7 breast): > 100 µM | GI50 (PC-3 prostate): 0.0159 µM | TGI (PC-3 prostate): > 100 µM | GI50 (CAKI-1 renal): < 0.01 µM | TGI (CAKI-1 renal): > 100 µM | GI50 (SK-OV-3 ovarian): < 0.01 µM | TGI (SK-OV-3 ovarian): > 100 µM | GI50 (HCT-15 colon): 0.0167 µM | TGI (HCT-15 colon): 0.0486 µM
